Tests used:
[1] = test system: mouse spleen cells (T cells and B cells); test: spleen cell proliferation caused by antigen stimulation (BrdU incorporation ELISA); assay type: cell-based; settings: BL 10 nM; antigen 10 µg/mL of ovalbumin; cultured for 3 days; spleen cells of ovalbumin/aluminum hydroxide immunised BALB/c mouse; FIG. 1
Experimental: The effect of BL on the spleen cell proliferation caused by an antigen stimulation was examined.
A mixed solution (0.2 mL) of […] of ovalbumin (Sigma-Aldrich Corporation) and 4 mg of aluminum hydroxide (Thermo Scientific Pierce Protein Research Products) was intraperitoneally administered to a BALB/c mouse (female, 8 to 12 weeks old) and the spleen was collected 2 weeks later. Cells were isolated from the spleen and cultured in RPMI-1640 medium containing 10% fetal bovine serum (Cansera International Inc.), 5×10^−5M β-mercaptoethanol (Wako Pure Chemical Industries, Ltd.), 20 U/mL penicillin (Meiji Seika Kaisha, Limited) and 100 μg/mL streptomycin (Meiji Seika Kaisha, Limited) at 37° C. under the presence of 5% CO2. Cells to which BL (Brassino Co., Ltd.) was added in a concentration of 10 nM and cells to which BL was not added were respectively stimulated by an antigen ([…] of ovalbumin), cultured for 3 days and measured for the incorporated BrdU in the detection of proliferating spleen cells using a cell proliferation ELISA BrdU colorimetric kit (Roche Applied Science).

macrophages [2] = test: cytokine mRNA expression in macrophages stimulated with R848 (real time PCR); assay type: cell-based, mouse; settings: 10 nM BL for 15 minutes, then R848 stimulation, RNA 1 hour later, relative to HPRT mRNA
Experimental: 3 mL of 3% thioglycolate medium (Difco Laboratories) was intraperitoneally administered to a BALB/c mouse (female, 8 to 12 weeks age), peritoneal cells were collected 3 days later and cultured in RPMI-1640 medium containing 10% fetal bovine serum (Cansera International Inc.), 5×10^−5M β-mercaptoethanol (Wako Pure Chemical Industries, Ltd.), 20 U/mL penicillin (Meiji Seika Kaisha, Limited) and 100 μg/mL streptomycin (Meiji Seika Kaisha, Limited) at 37° C. under the presence of 5% CO2. After culturing 1×10^6/mL of the peritoneal cells for 3 hours in a 6-well plate (2 mL/well), non-adherent cells were removed and adherent cells were tested as the macrophages. The macrophages were cultured for 15 minutes in the presence or absence of 10 nM BL, subsequently stimulated with R848 (InvivoGen) or LPS (Sigma-Aldrich Corporation) 100 ng/mL, and the RNA was collected 1 hour later using Rneasy Mini Kit (QIAGEN K. K.). Using a Primescript RT reagent kit (TAKARA BIO INC.), cDNA was synthesized from […] of the isolated RNA in accordance with the attached protocol and the real time PCR was carried out using Thermal Cycler Dice Real Time System II (TAKARA BIO INC.) to examine the changes of cytokine (IFN-α, IFN-β, IL-12 subunit p35, IL-12 subunit p40, TNF-α) mRNA expression. […]

macrophages [3] = test: cytokine mRNA expression in macrophages stimulated with LPS (real time PCR); assay type: cell-based, mouse; settings: 10 nM BL for 15 minutes, then LPS stimulation, RNA 1 hour later, relative to HPRT mRNA
Experimental: 3 mL of 3% thioglycolate medium (Difco Laboratories) was intraperitoneally administered to a BALB/c mouse (female, 8 to 12 weeks age), peritoneal cells were collected 3 days later and cultured in RPMI-1640 medium containing 10% fetal bovine serum (Cansera International Inc.), 5×10^−5M β-mercaptoethanol (Wako Pure Chemical Industries, Ltd.), 20 U/mL penicillin (Meiji Seika Kaisha, Limited) and 100 μg/mL streptomycin (Meiji Seika Kaisha, Limited) at 37° C. under the presence of 5% CO2. After culturing 1×10^6/mL of the peritoneal cells for 3 hours in a 6-well plate (2 mL/well), non-adherent cells were removed and adherent cells were tested as the macrophages. The macrophages were cultured for 15 minutes in the presence or absence of 10 nM BL, subsequently stimulated with R848 (InvivoGen) or LPS (Sigma-Aldrich Corporation) 100 ng/mL, and the RNA was collected 1 hour later using Rneasy Mini Kit (QIAGEN K. K.). Using a Primescript RT reagent kit (TAKARA BIO INC.), cDNA was synthesized from […] of the isolated RNA in accordance with the attached protocol and the real time PCR was carried out using Thermal Cycler Dice Real Time System II (TAKARA BIO INC.) to examine the changes of cytokine (IFN-α, IFN-β, IL-12 subunit p35, IL-12 subunit p40, TNF-α) mRNA expression.
The mRNA amounts are shown for IFN-α in FIG. 3, IFN-β in FIG. 4, IL-12 subunit p35 in FIG. 5, IL-12 subunit p40 in FIG. 6 and TNF-α in FIG. 7. The mRNA amount in each Figure is indicated as the relative amount to the mRNA amount of HPRT, which is the housekeeping gene.

BALB/c mouse = test: antigen (ovalbumin) specific antibody (IgG) production in mouse, serum ELISA; assay type: in vivo; settings: BL 0.2, 1 and 5 mg/Kg of body weight intraperitoneally every other day; serum 2 weeks later; absorbance at 450 nm; FIG. 2
Experimental: A mixed solution (0.2 mL) of […] of ovalbumin (Sigma-Aldrich Corporation) and 4 mg of aluminum hydroxide (Thermo Scientific Pierce Protein Research Products) was intraperitoneally administered to a BALB/c mouse (female, 8 to 12 weeks old) and BL dissolved in 0.2 mL PBS (0, 0.2, 1 and 5 mg/Kg of body weight) was intraperitoneally administered every other day. The serum was isolated 2 weeks later and measured for the production of immunoglobulin (IgG) specific to the antigen (ovalbumin) using ELISA. ELISA was carried out using a biotinylated anti-mouse IgG antibody (Southern Biotechnology Associates Inc.) as the secondary antibody, streptavidin-HRP (Prozyme, Inc.) and a TMB Microwell Peroxidase Substrate (Kirkegaard & Perry Laboratories, Inc.) as the colorimetric substrate, and the absorbance at 450 nm was measured.

CC(C)[C@H](C)[C@@H](O)[C@H](O)[C@@H](C)[C@H]1CC[C@H]2[C@@H]3COC(=O)[C@H]4C[C@H](O)[C@H](O)C[C@]4(C)[C@H]3CC[C@]12C [BL, Brassinolide]
spleen cell proliferation induced by the antigen stimulation (incorporated BrdU) [1]: significantly promoted
IFN-α mRNA expression induction (macrophages [2]; FIG. 3): enhancing
IFN-β mRNA expression induction (macrophages [2]; FIG. 4): enhancing
IL-12 p35 mRNA expression induction (macrophages [3]; FIG. 5): enhancing
IL-12 p40 mRNA expression induction (macrophages [3]; FIG. 6): enhancing
TNF-α mRNA expression induction (macrophages [3]; FIG. 7): enhancing
antigen specific antibody (IgG) production induced by ovalbumin and aluminum hydroxide (BALB/c mouse): significantly promoted

From patent US20120165553A1, “IMMUNOSTIMULANT” (RIKEN, priority 2010, published 2012)
